Eight molecules from PubChem BioAssay (NCI) can be followed below.

Among the test systems are ACHN renal; HOP-92 NSCLC; M14 melanoma; SNB-75 CNS; NCI-H226 lung; SW-620 colon; SK-OV-3 ovarian; HCT-116 colon; OVCAR-5 ovarian; COLO 205 colon.
Experiment in all cases: growth of human tumour cells (NCI), 48 h

Structures are written as SMILES. Values joined by “and” are separate entries in the source; they are usually repeats but may differ in a detail not shown here. Equal entries are not always repeated.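 Exposure lasted 48 hours, with cells grown in 96-well plates and compounds tested at five concentrations. Abbreviation: GI50, concentration required for 50% inhibition of growth. At the TGI there is no net growth.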

With `COc1ccc(/C=C2\CN(Cc3cn(CCCNc4ccnc5cc(Cl)ccc45)nn3)C/C(=C\c3ccc(OC)c(OC)c3)C2=O)cc1OC`, the GI50 in the experiment on ACHN renal is 1.64 µM; with HOP-92 NSCLC it was 1.45 µM; with M14 melanoma, 2.59 µM; with SNB-75 CNS it was 1.71 µM; with NCI-H226 lung it was 1.97 µM; with SW-620 colon, 0.455 µM. The GI50 is 2.45 µM with SK-OV-3 ovarian, 0.577 µM in the experiment on HCT-116 colon, 2.68 µM in the experiment with OVCAR-5 ovarian and 1.03 µM in the experiment with COLO 205 colon. Further, the TGI with ACHN renal was found to be 3.11 µM; with HOP-92 NSCLC, 5.19 µM; in the experiment on M14 melanoma, 9.68 µM; in the experiment on SNB-75 CNS it was 6.09 µM; in the experiment on NCI-H226 lung, 4.74 µM; in the experiment on SW-620 colon, 1.75 µM. In addition, the TGI in the experiment on SK-OV-3 ovarian was determined as 11.1 µM; with HCT-116 colon it was 2.1 µM; with OVCAR-5 ovarian, 6.42 µM; in the experiment on COLO 205 colon it was 2.39 µM.
In the case of `O=C(O)c1ccc2c(c1Nc1ccccc1)C(=O)c1ccccc1C2=O`, the GI50 was 39.7 µM in the experiment on ACHN renal; 27.9 µM in the experiment on HOP-92 NSCLC; 38.1 µM with M14 melanoma; 46.7 µM in the experiment with SNB-75 CNS; 24.2 µM with NCI-H226 lung; 44.1 µM in the experiment with SW-620 colon. Besides, the GI50 with SK-OV-3 ovarian is 34.2 µM; in the experiment on HCT-116 colon it was 26.6 µM; in the experiment with OVCAR-5 ovarian, above 100 µM; in the experiment with COLO 205 colon, 38.9 µM. The TGI in the experiment on ACHN renal, in the experiment with HOP-92 NSCLC, in the experiment on M14 melanoma, in the experiment on SNB-75 CNS, with NCI-H226 lung and with SW-620 colon was above 100 µM each time. Further, the TGI with SK-OV-3 ovarian, in the experiment with HCT-116 colon, in the experiment with OVCAR-5 ovarian and with COLO 205 colon was above 100 µM throughout.
As for `CNNCc1ccc(C(=O)NC(C)C)cc1`, the TGI with ACHN renal was above 500 µM; with HOP-92 NSCLC it was 391 µM and > 500 µM; in the experiment on M14 melanoma, above 500 µM; in the experiment on SNB-75 CNS, above 500 µM; in the experiment on NCI-H226 lung it was above 500 µM; in the experiment with SW-620 colon it was above 500 µM. For the same molecule, the TGI in the experiment on SK-OV-3 ovarian, in the experiment with HCT-116 colon, with OVCAR-5 ovarian and in the experiment on COLO 205 colon was above 500 µM each time. Besides, the GI50 with HOP-92 NSCLC is 459 µM; in the experiment with SNB-75 CNS it was above 500 µM; with NCI-H226 lung, above 500 µM; in the experiment on OVCAR-5 ovarian, above 500 µM.
With `ClCc1ccc(-c2ccc(Cn3cnc4c(Cl)nc(Cl)nc43)cc2)cc1`, the GI50 in the experiment with ACHN renal was 2.05 µM; in the experiment with HOP-92 NSCLC, 1.98 µM; in the experiment on M14 melanoma, 13.4 µM; with SNB-75 CNS, 2.63 µM; in the experiment on NCI-H226 lung, 8.85 µM; in the experiment on SW-620 colon, 1.83 µM. In addition, the GI50 in the experiment on SK-OV-3 ovarian was 10.6 µM; with HCT-116 colon, 1.58 µM; in the experiment with OVCAR-5 ovarian it was 17.8 µM; in the experiment on COLO 205 colon, 2.72 µM. Besides, the TGI in the experiment on ACHN renal amounted to 4.25 µM; in the experiment on HOP-92 NSCLC, 5.56 µM; in the experiment on M14 melanoma, 32.3 µM; in the experiment with SNB-75 CNS it was 7.81 µM; in the experiment with NCI-H226 lung, 28.5 µM; in the experiment on SW-620 colon, 3.41 µM. Also, the TGI in the experiment with SK-OV-3 ovarian was 22.6 µM; with HCT-116 colon it was 2.92 µM; in the experiment with OVCAR-5 ovarian it was 32.4 µM; in the experiment on COLO 205 colon, 8.53 µM.
With `Cc1c2c(nn1C(=O)c1nn(-c3ccc(Cl)cc3)cc1O)-c1ccccc1CC2`, the GI50 with ACHN renal was 0.0456 µM; with HOP-92 NSCLC, 0.0521 µM; with M14 melanoma, 0.0842 µM; in the experiment on SNB-75 CNS, 0.0303 µM; in the experiment on NCI-H226 lung, 0.0968 µM; with SW-620 colon it was 0.289 µM. For the same molecule, the GI50 was 0.202 µM with SK-OV-3 ovarian, 0.0339 µM in the experiment with HCT-116 colon, 0.0723 µM with OVCAR-5 ovarian and 0.323 µM in the experiment with COLO 205 colon. The TGI is above 100 µM in the experiment on ACHN renal; above 100 µM in the experiment with HOP-92 NSCLC; above 45.5 µM in the experiment with M14 melanoma; above 100 µM with SNB-75 CNS; above 25.7 µM with NCI-H226 lung; above 100 µM with SW-620 colon. Also, the TGI in the experiment with SK-OV-3 ovarian was above 100 µM; in the experiment on HCT-116 colon it was above 100 µM; in the experiment with OVCAR-5 ovarian, above 100 µM; with COLO 205 colon it was 4.22 µM.
For the molecule `COc1cc(/C=C/C(=O)c2ccc(Nc3ncnc4ccccc34)cc2)cc(OC)c1`, the GI50 in the experiment with ACHN renal was 13.9 µM; in the experiment with HOP-92 NSCLC it was 1.32 µM; with M14 melanoma, 3.95 µM; in the experiment with SNB-75 CNS it was 24.1 µM; with NCI-H226 lung, 2.45 µM; in the experiment with SW-620 colon, 2.38 µM. The GI50 with SK-OV-3 ovarian was 3.6 µM; in the experiment on HCT-116 colon, 0.346 µM; with OVCAR-5 ovarian, 20.3 µM; in the experiment on COLO 205 colon it was 9.59 µM. Also, the TGI in the experiment on ACHN renal was 63.9 µM; in the experiment with HOP-92 NSCLC, 52.7 µM; in the experiment with M14 melanoma it was 14.6 µM; in the experiment on SNB-75 CNS it was above 100 µM; in the experiment on NCI-H226 lung, 8.91 µM; with SW-620 colon, 9.68 µM. For the same molecule, the TGI in the experiment on SK-OV-3 ovarian turned out to be 10.7 µM; in the experiment with HCT-116 colon it was 1.17 µM; with OVCAR-5 ovarian, 57.3 µM; in the experiment on COLO 205 colon, 39.8 µM.
Turning to `N=C1N(c2ccccc2)C(=O)C23CCCC2C13N1CCOCC1` (centres undefined), the TGI in the experiment with ACHN renal, in the experiment on HOP-92 NSCLC, in the experiment with M14 melanoma, in the experiment on SNB-75 CNS, with NCI-H226 lung and in the experiment with SW-620 colon was above 100 µM in each case. Also, the TGI with SK-OV-3 ovarian, in the experiment with HCT-116 colon, in the experiment with OVCAR-5 ovarian and with COLO 205 colon was above 100 µM throughout.
Take `COc1cc(/C=C2\CN(C)C/C(=C\c3cc(OC)c(OC)c(OC)c3)C2=O)cc(OC)c1OC`: the GI50 was 0.2 µM with ACHN renal; 0.774 µM in the experiment on HOP-92 NSCLC; 0.306 µM in the experiment with M14 melanoma; 0.667 µM with SNB-75 CNS; 0.239 µM with NCI-H226 lung; 0.347 µM in the experiment on SW-620 colon. Besides, the GI50 is 0.412 µM with SK-OV-3 ovarian, 0.154 µM in the experiment with HCT-116 colon, 0.357 µM in the experiment with OVCAR-5 ovarian and 0.23 µM in the experiment on COLO 205 colon. In addition, the TGI with ACHN renal came to 0.387 µM; in the experiment with HOP-92 NSCLC it was 2.8 µM; in the experiment with M14 melanoma, 1.57 µM; in the experiment with SNB-75 CNS, 2.48 µM; in the experiment with NCI-H226 lung, 0.588 µM; in the experiment with SW-620 colon it was 1.42 µM. The TGI in the experiment with SK-OV-3 ovarian amounted to 1.41 µM; in the experiment on HCT-116 colon it was 0.335 µM; in the experiment on OVCAR-5 ovarian it was 1.17 µM; in the experiment with COLO 205 colon, 0.461 µM.
